In the supplement of paper PMC10307832:

Assays:
Experiment in all cases: relative viability (nuclei count vs DMSO), 5 days (fraction); higher = more cells survive
Quizartinib + AZD7762 = compound: CC(C)(C)c1cc(NC(=O)Nc2ccc(-c3cn4c(n3)sc3cc(OCCN5CCOCC5)ccc34)cc2)no1 [Quizartinib] + NC(=O)Nc1cc(-c2cccc(F)c2)sc1C(=O)N[C@H]1CCCNC1 [AZD7762] (partner 0.2 µM)
In short: (§1)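 Relative viability is defined as nuclei in treated wells over nuclei in vehicle wells. Duplicate plates were run and medians reported. Lung cancer cell lines in 1536-well plates were dosed by pin tool one day after seeding, with one drug or with a fixed anchor-drug dose plus five library-drug doses (not always all listed) in √10 steps, and nuclei were counted after 5 days.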

YM155 + Crizotinib = compound: COCC[n+]1c2c(n(Cc3cnccn3)c1C)C(=O)c1ccccc1C2=O [YM155] + C[C@@H](Oc1cc(-c2cnn(C3CCNCC3)c2)cnc1N)c1c(Cl)ccc(F)c1Cl [Crizotinib] (partner 1 µM)
In short: as §1

YM155 + Decitabine = compound: COCC[n+]1c2c(n(Cc3cnccn3)c1C)C(=O)c1ccccc1C2=O [YM155] + Nc1ncn([C@H]2C[C@H](O)[C@@H](CO)O2)c(=O)n1 [Decitabine] (partner 2 µM)
In short: as §1

[1] = compound: CC(C)(C)c1cc(NC(=O)Nc2ccc(-c3cn4c(n3)sc3cc(OCCN5CCOCC5)ccc34)cc2)no1 [Quizartinib] + CC(=O)c1c(C)c2cnc(Nc3ccc(N4CCNCC4)cn3)nc2n(C2CCCC2)c1=O [Palbociclib] (partner 0.5 µM)
In short: as §1

NCI-H1915 showed a relative viability (Quizartinib + AZD7762; first compound 0.001 µM) of 0.683, a relative viability (Quizartinib + AZD7762; first compound 0.003162 µM) of 0.613 and a relative viability (Quizartinib + AZD7762; first compound 0.01 µM) of 0.646. The relative viability (Quizartinib + AZD7762; first compound 0.03162 µM) was 0.694, the relative viability (Quizartinib + AZD7762; first compound 0.1 µM) was 0.721 and the relative viability (YM155 + Crizotinib; first compound 0.002 µM) was 0.898. The relative viability (YM155 + Crizotinib; first compound 0.006325 µM) was 0.916, the relative viability (YM155 + Crizotinib; first compound 0.02 µM) was 0.922 and the relative viability (YM155 + Crizotinib; first compound 0.06325 µM) was 0.849. It also gave a relative viability (YM155 + Decitabine; first compound 0.002 µM) of 0.277, a relative viability (YM155 + Decitabine; first compound 0.006325 µM) of 0.256 and a relative viability (YM155 + Decitabine; first compound 0.02 µM) of 0.264. It also gave a relative viability (YM155 + Decitabine; first compound 0.06325 µM) of 0.267, a relative viability ([1]; first compound 0.001 µM) of 0.507 and a relative viability ([1]; first compound 0.003162 µM) of 0.433. For the same cell line, the relative viability ([1]; first compound 0.01 µM) was 0.482, the relative viability ([1]; first compound 0.03162 µM) was 0.552 and the relative viability ([1]; first compound 0.1 µM) was 0.474.
HCC-44 gave a relative viability (Quizartinib + AZD7762; first compound 0.001 µM) of 0.976, a relative viability (Quizartinib + AZD7762; first compound 0.003162 µM) of 1.04 and a relative viability (Quizartinib + AZD7762; first compound 0.01 µM) of 0.988. It also gave a relative viability (Quizartinib + AZD7762; first compound 0.03162 µM) of 1.02, a relative viability (Quizartinib + AZD7762; first compound 0.1 µM) of 1.02 and a relative viability (YM155 + Crizotinib; first compound 0.002 µM) of 0.805. For the same cell line, the relative viability (YM155 + Crizotinib; first compound 0.006325 µM) was 0.755, the relative viability (YM155 + Crizotinib; first compound 0.02 µM) was 0.845 and the relative viability (YM155 + Crizotinib; first compound 0.06325 µM) was 0.776. It also gave a relative viability (YM155 + Decitabine; first compound 0.002 µM) of 0.936, a relative viability (YM155 + Decitabine; first compound 0.006325 µM) of 1 and a relative viability (YM155 + Decitabine; first compound 0.02 µM) of 0.929. The relative viability (YM155 + Decitabine; first compound 0.06325 µM) was 0.964, the relative viability ([1]; first compound 0.001 µM) was 0.943 and the relative viability ([1]; first compound 0.003162 µM) was 1.04. It also gave a relative viability ([1]; first compound 0.01 µM) of 0.997, a relative viability ([1]; first compound 0.03162 µM) of 0.921 and a relative viability ([1]; first compound 0.1 µM) of 0.949.
HARA gave a relative viability (Quizartinib + AZD7762; first compound 0.001 µM) of 0.401, a relative viability (Quizartinib + AZD7762; first compound 0.003162 µM) of 0.193 and a relative viability (Quizartinib + AZD7762; first compound 0.01 µM) of 0.515. It also gave a relative viability (Quizartinib + AZD7762; first compound 0.03162 µM) of 0.26, a relative viability (Quizartinib + AZD7762; first compound 0.1 µM) of 0.334 and a relative viability (YM155 + Crizotinib; first compound 0.002 µM) of 1.04. For the same cell line, the relative viability (YM155 + Crizotinib; first compound 0.006325 µM) was 1.13, the relative viability (YM155 + Crizotinib; first compound 0.02 µM) was 1.09 and the relative viability (YM155 + Crizotinib; first compound 0.06325 µM) was 0.995. The relative viability (YM155 + Decitabine; first compound 0.006325 µM) was 0.566, the relative viability (YM155 + Decitabine; first compound 0.02 µM) was 0.578 and the relative viability (YM155 + Decitabine; first compound 0.06325 µM) was 0.57. For the same cell line, the relative viability ([1]; first compound 0.001 µM) was 0.233, the relative viability ([1]; first compound 0.003162 µM) was 0.23 and the relative viability ([1]; first compound 0.01 µM) was 0.261. The relative viability ([1]; first compound 0.03162 µM) was 0.248 and the relative viability ([1]; first compound 0.1 µM) was 0.259.
With HCC-366 the relative viability (Quizartinib + AZD7762; first compound 0.001 µM) was 0.272, the relative viability (Quizartinib + AZD7762; first compound 0.003162 µM) was 0.181 and the relative viability (Quizartinib + AZD7762; first compound 0.01 µM) was 0.285. For the same cell line, the relative viability (Quizartinib + AZD7762; first compound 0.03162 µM) was 0.119, the relative viability (Quizartinib + AZD7762; first compound 0.1 µM) was 0.199 and the relative viability (YM155 + Crizotinib; first compound 0.002 µM) was 0.519. The relative viability (YM155 + Crizotinib; first compound 0.006325 µM) was 0.478, the relative viability (YM155 + Crizotinib; first compound 0.02 µM) was 0.612 and the relative viability (YM155 + Crizotinib; first compound 0.06325 µM) was 0.401. The relative viability (YM155 + Decitabine; first compound 0.002 µM) was 0.358, the relative viability (YM155 + Decitabine; first compound 0.006325 µM) was 0.366 and the relative viability (YM155 + Decitabine; first compound 0.02 µM) was 0.345. For the same cell line, the relative viability (YM155 + Decitabine; first compound 0.06325 µM) was 0.316, the relative viability ([1]; first compound 0.001 µM) was 0.318 and the relative viability ([1]; first compound 0.003162 µM) was 0.384. It also gave a relative viability ([1]; first compound 0.01 µM) of 0.374, a relative viability ([1]; first compound 0.03162 µM) of 0.382 and a relative viability ([1]; first compound 0.1 µM) of 0.436.
ABC-1 gave a relative viability (Quizartinib + AZD7762; first compound 0.001 µM) of 0.717, a relative viability (Quizartinib + AZD7762; first compound 0.003162 µM) of 0.783 and a relative viability (Quizartinib + AZD7762; first compound 0.01 µM) of 0.784. The relative viability (Quizartinib + AZD7762; first compound 0.03162 µM) was 0.913, the relative viability (Quizartinib + AZD7762; first compound 0.1 µM) was 0.827 and the relative viability (YM155 + Crizotinib; first compound 0.002 µM) was 0.844. For the same cell line, the relative viability (YM155 + Crizotinib; first compound 0.006325 µM) was 0.341, the relative viability (YM155 + Crizotinib; first compound 0.02 µM) was 0.166 and the relative viability (YM155 + Crizotinib; first compound 0.06325 µM) was 0.15. It also gave a relative viability (YM155 + Decitabine; first compound 0.006325 µM) of 0.84, a relative viability (YM155 + Decitabine; first compound 0.02 µM) of 0.383 and a relative viability (YM155 + Decitabine; first compound 0.06325 µM) of 0.308. It also gave a relative viability ([1]; first compound 0.003162 µM) of 0.71, a relative viability ([1]; first compound 0.01 µM) of 0.842 and a relative viability ([1]; first compound 0.03162 µM) of 0.769. For the same cell line, the relative viability ([1]; first compound 0.1 µM) was 0.823.
